We go through 14 compounds from US20150299125A1, “PRODRUG BIPYRIDYLAMINOPYRIDINES AS SYK INHIBITORS” (MERCK SHARP & DOHME CORP., priority 2012, published 2015).

Data set [1] can be described thus: Solubility in biorelevant fasted state simulated intestinal fluid (FaSSIF). Format: physicochemical. Conditions: 25 °C, fassif, kinetic from dmso stock, Solubility. The procedure:
Solubility in Biorelevant Fasted State Simulated Intestinal Fluid (FaSSIF):
A 10 mM DMSO stock solution of compound to be tested is used. A 100 μM standard solution is generated by diluting 2.5 μL of the 10 mM stock solution with 247.5 μL of diluent (10% DMSO/10% MeCN/80% MeOH, v/v/v). A solubility solution is generated by diluting 5 μL of the 10 mM stock solution with 245 μL of FaSSIF (maximum solubility approximately 200 μM). […] The equilibrated solubility solution is filtered by centrifugation (3 minutes at 4000 rpm) using a 0.45 µm filter with a polypropylene membrane. The standard solution and the filtered equilibrated solubility solution are analyzed by HPLC/DAD. The solubility value is calculated by the following equation:
Solubility=(Peak area of sample/Peak area of standard)(Standard concentration)

Data set [2] deals with T1, recombinant human GST-Syk (Homo sapiens, UniProt P43405).
T1 construct: purchased Carna Biosciences 08-176
The data set is described as follows: Homogeneous Time-Resolved Fluorescence (HTRF) assay for the recombinant human Syk enzyme. Type of data set: biochemical. Particulars: recombinant human GST-Syk 5 pM, ATP 25 μM, read-out: IC50. The method in brief: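 Recombinant GST-hSyk phosphorylates a biotinylated peptide for 45 min at room temperature. Quenched with EDTA buffer containing 2 nM Eu-anti-phosphotyrosine antibody and 70 nM SA-APC; HTRF read after 30 min.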
In general terms: TR-FRET usually uses a lanthanide donor and a delayed reading to cut background.

≈ marks a conversion by molar mass, not a printed value.

In the case of `Cc1cc(Nc2cc(C(F)F)ccn2)nc(-c2ccc([C@](C)(O)[C@H]3CC[C@H](C(=O)OCOC(=O)OCCCCCCN)CC3)nc2)c1` [Example 2-1, ({[(6-Aminohexyl)oxy]carbonyl}oxy)methyl trans-4-[(1R)-1-(6-{[4-(difluoromethyl)pyridin-2-yl]amino}-4-methyl-2,3′-bipyridin-6′-yl)-1-hydroxyethyl]cyclohexanecarboxylate], the solubility (as a rule, the dissolved amount per volume that the medium holds) in data set [1] is 167 µM (≈ 110 µg/mL). Moreover, in data set [2], the IC50 (as a rule, the point on the concentration scale where inhibition reaches its midpoint) came to 19.9 nM.
In the case of `Cc1cc(Nc2cc(C(F)F)ccn2)nc(-c2ccc([C@](C)(O)[C@H]3CC[C@H](C(=O)OCOC(=O)O[C@H]4CC[C@H](N)CC4)CC3)nc2)c1` [Example 2-11, ({[(trans-4-aminocyclohexyl)oxy]carbonyl}oxy) methyl trans-4-[(1R)-1-(6-{[4-(difluoromethyl)pyridin-2-yl]amino}-4-methyl-2,3′-bipyridin-6′-yl)-1-hydroxyethyl]cyclo hexanecarboxylate], the solubility in data set [1] is 149 µM (≈ 97.4 µg/mL). Further, the half-inhibitory concentration (IC50) in data set [2] is 5.2 nM.
For `CCOCCOCCOC(=O)OC(OC(=O)[C@H]1CC[C@H]([C@@](C)(O)c2ccc(-c3cc(C)cc(Nc4cc(C(F)F)ccn4)n3)cn2)CC1)C(C)C` (stereo partly drawn) [Example 2-16, 1-(1-methylethyl)-3-oxo-2,4,7,10-tetraoxadodec-1-yl trans-4-[(1R)-1-(6-{[4-(difluoromethyl)pyridin-2-yl]amino}-4-methyl-2,3′-bipyridin-6′-yl)-1-hydroxyethyl]cyclo hexanecarboxylate], in that order: 48 µM (≈ 34.3 µg/mL) and 48.4 nM.
In data set [1], `Cc1cc(Nc2cc(C(F)F)ccn2)nc(-c2ccc([C@](C)(O)[C@H]3CC[C@H](C(=O)OCOC(=O)[C@@H](O)Cc4ccc(O)cc4)CC3)nc2)c1` [Example 3-6, {[(2S)-2-hydroxy-3-(4-hydroxyphenyl)propanoyl]oxy}methyl trans-4-[(1R)-1-(6-{[4-(difluoromethyl)pyridin-2-yl]amino}-4-methyl-2,3′-bipyridin-6′-yl)-1-hydroxyethyl]cyclohexane carboxylate] yielded a solubility of 89 µM (≈ 60.2 µg/mL). Further, the IC50 in data set [2] worked out at 4.1 nM.
The corresponding values for `Cc1cc(Nc2cc(C(F)F)ccn2)nc(-c2ccc([C@](C)(O)[C@H]3CC[C@H](C(=O)OCOC(=O)CCO)CC3)nc2)c1` [Example 3-9, [(3-hydroxypropanoyl)oxy] methyl trans-4-[(1R)-1-(6-{[4-(difluoromethyl)pyridin-2-yl]amino}-4-methyl-2,3′-bipyridin-6′-yl)-1-hydroxyethyl]cyclohexane carboxylate] are 160 µM (≈ 93.5 µg/mL) and 4.8 nM.
The corresponding values for `Cc1cc(Nc2cc(C(F)F)ccn2)nc(-c2ccc([C@](C)(O)[C@H]3CC[C@H](C(=O)OC[N+](C)(C)C(C)C)CC3)nc2)c1` [Example 5-2, N-{[({trans-4-[(1R)-1-(6-{[4-(difluoromethyl)pyridin-2-yl]amino}-4-methyl-2,3′-bipyridin-6′-yl)-1-hydroxyethyl]cyclohexyl}carbonyl)oxy]methyl}-N,N-dimethylpropan-2-aminium] are 97 µM and 0.8 nM.
For `CC[N+](COC(=O)[C@H]1CC[C@H]([C@@](C)(O)c2ccc(-c3cc(C)cc(Nc4cc(C(F)F)ccn4)n3)cn2)CC1)(C(C)C)C(C)C` [Example 5-3, N-{[({trans-4-[(1R)-1-(6-{[4-(difluoromethyl)pyridin-2-yl]amino}-4-methyl-2,3′-bipyridin-6′-yl)-1-hydroxyethyl]cyclohexyl}carbonyl)oxy]methyl}-N-ethyl-N-(1-methylethyl)propan-2-aminium], in that order: 175 µM and 1.9 nM.
Compound `Cc1cc(Nc2cc(C(F)F)ccn2)nc(-c2ccc([C@](C)(O)[C@H]3CC[C@H](C(=O)OC[N+](C)(C)CCN(C)C)CC3)nc2)c1` [Example 5-5, N-{[({trans-4-[(1R)-1-(6-{[4-(difluoromethyl)pyridin-2-yl]amino}-4-methyl-2,3′-bipyridin-6′-yl)-1-hydroxyethyl]cyclohexyl}carbonyl)oxy]methyl}-2-(dimethylamino)-N,N-dimethylethanaminium] yielded a solubility in data set [1] of 53 µM. In addition, the IC50 in data set [2] was found to be 1.3 nM.
For `CCCC[N+](CC)(CC)COC(=O)[C@H]1CC[C@H]([C@@](C)(O)c2ccc(-c3cc(C)cc(Nc4cc(C(F)F)ccn4)n3)cn2)CC1` [Example 5-6, N-{[({trans-4-[(1R)-1-(6-{[4-(difluoromethyl)pyridin-2-yl]amino}-4-methyl-2,3′-bipyridin-6′-yl)-1-hydroxyethyl]cyclohexyl}carbonyl)oxy]methyl}-N,N-diethylbutan-1-aminium], in that order: 152 µM and 1.1 nM.
The corresponding values for `CC[N+](CC)(CCCC(C)O)COC(=O)[C@H]1CC[C@H]([C@@](C)(O)c2ccc(-c3cc(C)cc(Nc4cc(C(F)F)ccn4)n3)cn2)CC1` (stereo partly drawn) [Example 5-7, N-{[({trans-4-[(1R)-1-(6-{[4-(difluoromethyl)pyridin-2-yl]amino}-4-methyl-2,3′-bipyridin-6′-yl)-1-hydroxyethyl]cyclohexyl}carbonyl)oxy]methyl}-N,N-diethyl-4-hydroxypentan-1-aminium] are 200 µM and 1.3 nM.
The corresponding values for `CCC[N+](CCC)(CCC)COC(=O)[C@H]1CC[C@H]([C@@](C)(O)c2ccc(-c3cc(C)cc(Nc4cc(C(F)F)ccn4)n3)cn2)CC1` [Example 5-9, N-{[({trans-4-[(1R)-1-(6-{[4-(difluoromethyl)pyridin-2-yl]amino}-4-methyl-2,3′-bipyridin-6′-yl)-1-hydroxyethyl]cyclohexyl}carbonyl)oxy]methyl}-N,N-dipropylpropan-1-aminium] are 137 µM and 1 nM.
In data set [1], `CC[N+](CC)(CC)COC(=O)[C@H]1CC[C@H]([C@@](C)(O)c2ccc(-c3cc(C)cc(Nc4cc(C(F)F)ccn4)n3)cn2)CC1` [Example 5-10, N-{[({trans-4-[(1R)-1-(6-{[4-(difluoromethyl)pyridin-2-yl]amino}-4-methyl-2,3′-bipyridin-6′-yl)-1-hydroxyethyl]cyclohexyl}carbonyl)oxy]methyl}-N,N-diethylethanaminium] returned a solubility of 138 µM. In addition, the IC50 in data set [2] stood at 1.4 nM.
For `Cc1cc(Nc2cc(C(F)F)ccn2)nc(-c2ccc([C@](C)(O)[C@H]3CC[C@H](C(=O)OC[N+](C)(C)C4CCCCC4)CC3)nc2)c1` [Example 5-11, N-{[({trans-4-[(1R)-1-(6-{[4-(difluoromethyl)pyridin-2-yl]amino}-4-methyl-2,3′-bipyridin-6′-yl)-1-hydroxyethyl]cyclohexyl}carbonyl)oxy]methyl}-N,N-dimethylcyclohexanaminium], in that order: 200 µM and 0.9 nM.
Consider `CCN(CC)C(=O)N1CC[N+](C)(COC(=O)[C@H]2CC[C@H]([C@@](C)(O)c3ccc(-c4cc(C)cc(Nc5cc(C(F)F)ccn5)n4)cn3)CC2)CC1` [Example 5-12, 4-(diethylcarbamoyl)-1-{[({trans-4-[(1R)-1-(6-{[4-(difluoromethyl)pyridin-2-yl]amino}-4-methyl-2,3′-bipyridin-6′-yl)-1-hydroxyethyl]cyclohexyl}carbonyl)oxy]methyl}-1-methylpiperazin-1-ium], for which the concentration in solution in data set [1] (solubility) was 55 µM. Moreover, the IC50 in data set [2] was below 0.5 nM.
